Reference: patent US20250099517A1, “Use of Lactobacillus reuteri Y7 strain for prevention or treatment of ocular diseases” (Taipei Medical University, priority 2023, published 2025)

Legend:
Format in all cases: in vivo, C57BL/6 mice
[1] = tested on: Occludin, Claudin-1, ZO-1 gene expression; test: q-PCR of tight junction gene expression in buccal mucosas; conditions: Y7H high-dosage group, p<0.05
Text: The C57BL/6 mice, which weighed between 23 and 25 g, were divided into seven groups randomly. In each group, the six mice induced by blue light successfully were incorporated in experiments. The samples dissolved in deuterium-depleted water (DDW) were fed to mice through oral tubes once a day. […] Then, the real-time quantitative polymerase chain reaction was enabled to detect gene expressions related to inflammatory hormones and apoptosis such as TNF-α, IL-1B, IL-6, Bax, Bcl-2, Caspase1, Caspase3 and NLRP3 for comparisons with the endogenous level of β-actin, GAPDH or 18S rRNA. […] The gene expressions related to tight junctions of mice' eyes, buccal mucosas and colons after induction of blue light were analyzed through q-PCR and shown in FIG. 10a, FIG. 10d and FIG. 10g for Occludin, FIG. 10b, FIG. 10e and FIG. 10h for Claudin-1 and FIG. 10c, FIG. 10f and FIG. 10i for ZO-1, respectively.

[2] = tested on: Bax, Bcl-2, Caspase3 gene expression; test: q-PCR of apoptosis-related gene expression in eyes
Protocol: (§1) The C57BL/6 mice, which weighed between 23 and 25 g, were divided into seven groups randomly. In each group, the six mice induced by blue light successfully were incorporated in experiments. The samples dissolved in deuterium-depleted water (DDW) were fed to mice through oral tubes once a day. The groups were named and introduced as follows: • (1) Solvent not classified group (NC): The mice were fed with 0.2 ml deuterium-depleted water (DDW) through tubes; • (2) Negative control group (Blue light (BL)): The mice were fed with 0.2 ml deuterium-depleted water (DDW) through tubes and exposed to blue light; • (3) Low-dosage Y7 probiotics group […]): The mice were fed with low-dosage Y7 probiotics (probiotic counts of 1.0×10^8 CFU/ml dissolved in 0.2 ml DDW per day) and exposed to blue light; • (4) High-dosage Y7 probiotics group […]): The mice were fed with high-dosage Y7 probiotics (probiotic counts of 1.0×10^9 CFU/ml dissolved in 0.2 ml DDW per day) and exposed to blue light; • (5) Positive control group (lutein (LU)): The mice were fed with lutein and exposed to blue light. The recommended human dosage of lutein is 30 mg. The mouse cage (48×25×20 cm) placed inside a stainless ventilated box was equipped with blue light boards as blue light sources around and above. In the experiment of animals exposed to blue light, six-week-old mice staying in the mouse cage were fed with drinking water as well as fodders and exposed to 400 Lux blue light illumination under the light-dark cycle of 12-hour light and 12-hour dark. The experiment was aimed at causing mice' late dry macular disease induced by chronic light injuries for simulating a human being's macular disease after long-term exposure to short-wavelength blue light from 3C products in daily life. The eyes of a mouse sacrificed were collected for the following purposes. RNAs extracted with Trizol were reverse-transcribed to cDNAs. Then, the real-time quantitative polymerase chain reaction was enabled to detect gene expressions related to inflammatory hormones and apoptosis such as TNF-α, IL-1B, IL-6, Bax, Bcl-2, Caspase1, Caspase3 and NLRP3 for comparisons with the endogenous level of β-actin, GAPDH or 18S rRNA. [table] The gene expressions related to apoptosis in test mice' eyes, for example, Bax (FIG. 9a), Bcl-2 (FIG. 9b) and Caspase3 (FIG. 9c), were analyzed in the experiment.

[3] = tested on: Occludin, Claudin-1, ZO-1 gene expression; test: q-PCR of tight junction gene expression in eyes; conditions: for gene expressions of Occludin compared with the LU group: p<0.05
Protocol: as §1, with “tight junctions of” for “apoptosis in test”, “buccal mucosas” for “for example, Bax (FIG. 9a), Bcl-2 (FIG. 9b)”, “colons after induction of blue light” for “Caspase3 (FIG. 9c),”, “analyzed through q-PCR and shown” for “analyzed”, “FIG. 10a, FIG. 10d and FIG. 10g for Occludin, FIG. 10b, FIG. 10e and FIG. 10h for Claudin-1 and FIG. 10c, FIG. 10f and FIG. 10i for ZO-1, respectively.” for “the experiment.”

[4] = after intervention of Y7 probiotics (dosage groups not distinguished)

## Lactobacillus reuteri Y7 [Y7 probiotics]
[1]
  gene expressions of ZO-1 compared with NC, BL or LU groups: increased significantly
[2]; Y7H high-dosage group
  gene expression of Bcl-2 compared with the BL group: increased significantly
[2]; Y7L low-dosage group versus LU group
  gene expression of Bax, closeness to the NC group: closer to the NC group than the LU group
[2]; [4]
  gene expression of Bax: significantly inhibited
  gene expression of Caspase3: closer to the NC group
[3]; Y7H high-dosage group
  gene expressions of Claudin-1 compared with the LU group: descending trend
  gene expressions of ZO-1 compared with the LU group: descending trend
  gene expressions of Occludin compared with the LU group: decreased significantly
[3]; Y7L low-dosage group
  gene expressions of Claudin-1 compared with the LU group: descending trend
  gene expressions of ZO-1 compared with the LU group: descending trend
  gene expressions of Occludin compared with the LU group: decreased significantly
